Counter-ions that a name gives are not always drawn. Residues, ends and D or L forms follow the SMILES beside them.
Key:
Type in all cases: in vivo, human
[1] = Action of reinforcing sweetness (previous intake of trans-3-octenyl sulfate); conditions: scale 0 to 15, six examiners
Method: To six examiners, 4 kinds of 10 mL aqueous solutions of sucrose standard (2.5, 5.0, 7.5 and 10.0 wt %) were presented. The examiners kept each of the solutions in their mouth for 5 seconds or so, and then spat the solution out, and were asked to consider the sweetness intensity at that time (0 to 15) to be 2.5, 5, 7.5 and 10, respectively. Next, the examiners kept 10 mL aqueous solution of sucralose (0.25 mM) in their mouth for 5 seconds or so without knowing the kind and the concentration of the sweetener, and then spat the solution out, and compared the sweetness intensity at that time with that of the aqueous sucrose standard solution, and evaluated the sweetness intensity with a number in a range of 0 to 15. Subsequently, the examiners kept 10 mL solution of 5 mM trans-3-octenyl sulfate in advance in their mouth for 5 seconds or so in advance, and then spat the solution out, and after passage of 60 seconds, the examiners kept 10 mL aqueous solution of sucralose (0.25 mM) in their mouth for 5 seconds or so, and then spat the solution out, and compared the sweetness intensity at that time with that of the aqueous sucrose standard solution, and evaluated the sweetness intensity with a number in a range of 0 to 15.
To six examiners, 4 kinds of 10 mL aqueous sucrose standard solutions (2.5, 5.0, 7.5 and 10.0 wt %) were presented. The examiners kept each of the solutions in their mouth for 5 seconds or so, and then spat the solution out, and were asked to consider the sweetness intensity at that time (0 to 15) to be 2.5, 5, 7.5 and 10, respectively. Next, the examiners kept 10 mL aqueous solution of glycyrrhizin (0.25 mM) in their mouth for 5 seconds or so without knowing the kind and the concentration of the sweetener, and then spat the solution out, and compared the sweetness intensity at that time with that of the aqueous sucrose standard solution, and evaluated the sweetness intensity with a number in a range of 0 to 15. Subsequently, the examiners kept 10 mL solution of 5 mM trans-3-octenyl sulfate in their mouth for 5 seconds or so in advance, and then spat the solution out, and after passage of 60 seconds, the examiners kept 10 mL aqueous solution of glycyrrhizin (0.25 mM) in their mouth for 5 seconds or so, and then spat the solution out, and compared the sweetness intensity at that time with that of the aqueous sucrose standard solution, and evaluated the sweetness intensity with a number in a range of 0 to 15.

[2] = Sweetness adjusting action on sucrose, aspartame, sucralose, glycyrrhizin (simultaneous intake); conditions: sucrose 7.5 wt %, aspartame 494 ppm, sucralose 0.49 mM, glycyrrhizin 303 ppm, alone or containing 5 mM trans-3-octenyl sulfate, scale 0 to 15; for Sweetness intensity (mean) When drinking water after 30 seconds: 10 mL pure water 30 seconds after sample; for Sweetness intensity (mean) When drinking sample: 10 mL
Method: To seven examiners, four kinds of 10 mL aqueous sucrose standard solutions (2.5, 5.0, 7.5 and 10.0 wt %) were presented. The examiners kept each of the solutions in their mouth for 5 seconds or so, and then spat the solution out, and were asked to consider the sweetness intensity at that time (0 to 15) to be 2.5, 5, 7.5 and 10, respectively. Next, the examiners kept 10 mL aqueous solution (7.5 wt %) of sucrose in their mouth for 5 seconds or so without knowing the kind and the concentration of the sweetener, and then spat the solution out, and compared the sweetness intensity at that time with that of the aqueous sucrose standard solution, and evaluated the sweetness intensity with a number in a range of 0 to 15. In addition, after 30 seconds, the examiners kept 10 mL pure water in their mouth, and then spat the solution out, and compared the sweetness intensity felt at that time with that of the aqueous sucrose standard solution, and evaluated the sweetness intensity in the same manner. Subsequently, the examiners were presented with 10 mL aqueous sucrose solution containing 5 mM trans-3-octenyl sulfate (7.5 wt %), and kept it in their mouth for 5 seconds or so, and then spat the solution out, and compared the sweetness intensity at that time with the sweetness intensity of the aqueous sucrose standard solution, and evaluated the sweetness intensity in the same manner. In addition, immediately after that, the examiners kept 10 mL pure water in their mouth for 5 seconds or so, and then spat the solution out, and compared the sweetness intensity at that time with that of the aqueous sucrose standard solution, and evaluated the sweetness intensity in the same manner. In addition, after 30 seconds, the examiners kept 10 mL pure water in their mouth, and then spat the solution out, and compared the sweetness intensity felt at that time with that of the aqueous sucrose standard solution, and evaluated the sweetness intensity in the same manner.
To seven examiners, 4 kinds of 10 mL aqueous sucrose standard solutions (2.5, 5.0, 7.5 and 10.0 wt %) were presented. The examiners kept each of the solutions in their mouth for 5 seconds or so, and then spat the solution out, and were asked to consider the sweetness intensity at that time (0 to 15) to be 2.5, 5, 7.5 and 10, respectively. Next, the examiners kept 10 mL aqueous solution of aspartame (494 ppm) in their mouth for 5 seconds or so without knowing the kind and the concentration of the sweetener, and then spat the solution out, and compared the sweetness intensity at that time with that of the aqueous sucrose standard solution, and evaluated the sweetness intensity with a number in a range of 0 to 15. The concentration of aspartame was prepared to have the same sweetness intensity as that of the aqueous sucrose solution (7.5 wt %) in accordance with the reference (Schiffman, S. S. et al. Chemical senses, 1999, 24, 439-447.). In addition, after 30 seconds, the examiners kept 10 mL pure water in their mouth, and then spat the solution out, and compared the sweetness intensity felt at that time with that of the aqueous sucrose standard solution, and evaluated the sweetness intensity in the same manner. Subsequently, the examiners were presented with 10 mL aqueous solution of aspartame containing 5 mM trans-3-octenyl sulfate (494 ppm), and kept it in their mouth for 5 seconds or so, and then spat the solution out, and compared the sweetness intensity at that time with the sweetness intensity of the sucrose standard solution, and evaluated the sweetness intensity in the same manner. In addition, after 30 seconds, the examiners kept 10 mL pure water in their mouth, and then spat the solution out, and compared the sweetness intensity felt at that time with that of the aqueous sucrose standard solution, and evaluated the sweetness intensity in the same manner. […]

[3] = Evaluation of sweetness (1)/(2): presence or absence of sweetness judged by examiners
Method: Trans-3-octenyl sulfate was dissolved in water to be 1 wt %, which was taken as a test sample. Six examiners kept 50 μL of the prepared test sample in their mouth, and then drunk some water, and judged for presence or absence of sweetness.
Cis-3-octenyl sulfate was dissolved in water to 1 wt %, which was taken as a test sample. Four examiners kept 50 μL of the prepared test sample in their mouth, and then drunk some water, and judged presence or absence of sweetness.

[4] = Evaluation of sweetness (3)/(4): sweetness intensity over time against sucrose standard solutions
Method: (§1) To seven examiners, 4 kinds of 10 mL aqueous sucrose standard solutions (2.5, 5.0, 7.5 and 10.0 wt %) were presented. The examiners kept each of the solutions in their mouth for 5 seconds or so, and then spat the solution out, and were asked to consider the sweetness intensity at that time (0 to 15) to be 2.5, 5, 7.5 and 10, respectively. Next, the examiners kept 10 mL solution of 10 mM trans-3-octenyl sulfate in their mouth for 5 seconds or so, and then spat the solution out, and compared the sweetness intensity at that time with that of the aqueous sucrose standard solution, and evaluated the sweetness intensity with a number in a range of 0 to 15. Then, the examiners kept 10 mL pure water for 5 minutes at an interval of 30 seconds, and then spat the solution out, and evaluated the sweetness intensity at that time in the same manner.
as §1, with “four” for “4”, “cis-3-octenyl” for “trans-3-octenyl”, “water in their mouth” for “water”

[5] = No previous intake of trans-3-octenyl sulfate, 10 mL sweetener 0.25 mM
[6] = Previous intake of 10 mL 5 mM trans-3-octenyl sulfate, 60 seconds before 10 mL sweetener 0.25 mM
[7] = 1 wt % in water, 50 μL kept in mouth, then water (13 ml), six examiners (trans), four examiners (cis)

## CC1(C)[C@@H](O[C@H]2O[C@H](C(=O)O)[C@@H](O)[C@H](O)[C@H]2O[C@@H]2O[C@H](C(=O)O)[C@@H](O)[C@H](O)[C@H]2O)CC[C@]2(C)[C@H]3C(=O)C=C4[C@@H]5C[C@@](C)(C(=O)O)CC[C@]5(C)CC[C@@]4(C)[C@]3(C)CC[C@@H]12 [Glycyrrhizin, glycyrrhizin]
[1]; [5]
  Sweetness intensity (mean): 3.4
[1]; [6]
  Sweetness intensity (mean): 7.3
[2]
  Sweetness intensity (mean) When drinking water after 30 seconds: 3.2
  Sweetness intensity (mean) When drinking sample: 4.1

## CCCC/C=C\CCOS(=O)(=O)O [cis-3-octenyl sulfate]
[3]; [7]
  No sweetness felt (number of examiners): 0
  Sweetness felt (number of examiners): 4
[3]; 1 wt %, 50 μL, then water
  Duration of sweetness: the sweetness lasted for a certain time
[4]; 10 mL of 10 mM solution, then pure water every 30 seconds
  Examiners who recognized the sweetness by virtue of intake of water: seven out of the seven
[4]; 10 mL of 10 mM solution, then pure water every 30 seconds for 5 minutes
  Duration of sweetness: the sweetness lasted for a certain time
[4]; Time 0 minute, 10 mL of 10 mM solution kept 5 seconds, scale 0 to 15 vs sucrose standards, seven examiners
  Sweetness intensity (mean): 0.0
[4]; Time 0.5 minute, on keeping 10 mL pure water, after 10 mM solution, scale 0 to 15
  Sweetness intensity (mean): 1.8
[4]; Time 1 minute, on keeping 10 mL pure water, after 10 mM solution, scale 0 to 15
  Sweetness intensity (mean): 3.2
[4]; Time 1.5 minute, on keeping 10 mL pure water, after 10 mM solution, scale 0 to 15
  Sweetness intensity (mean): 3.4
[4]; Time 2 minute, on keeping 10 mL pure water, after 10 mM solution, scale 0 to 15
  Sweetness intensity (mean): 2.6
[4]; Time 2.5 minute, on keeping 10 mL pure water, after 10 mM solution, scale 0 to 15
  Sweetness intensity (mean): 2.1
[4]; Time 3 minute, on keeping 10 mL pure water, after 10 mM solution, scale 0 to 15
  Sweetness intensity (mean): 1.4
[4]; Time 3.5 minute, on keeping 10 mL pure water, after 10 mM solution, scale 0 to 15
  Sweetness intensity (mean): 1.4
[4]; Time 4 minute, on keeping 10 mL pure water, after 10 mM solution, scale 0 to 15
  Sweetness intensity (mean): 0.9
[4]; Time 4.5 minute, on keeping 10 mL pure water, after 10 mM solution, scale 0 to 15
  Sweetness intensity (mean): 0.5
[4]; Time 5 minute, on keeping 10 mL pure water, after 10 mM solution, scale 0 to 15
  Sweetness intensity (mean): 0.5

## OC[C@H]1O[C@H](O[C@]2(CCl)O[C@H](CCl)[C@@H](O)[C@@H]2O)[C@H](O)[C@@H](O)[C@H]1Cl [Sucralose, sucralose]
[1]; [5]
  Sweetness intensity (mean): 7.3
[1]; [6]
  Sweetness intensity (mean): 10.2
[2]
  Sweetness intensity (mean) When drinking water after 30 seconds: 0.4
  Sweetness intensity (mean) When drinking sample: 8.4

## OC[C@H]1O[C@@](CO)(O[C@H]2O[C@H](CO)[C@@H](O)[C@H](O)[C@H]2O)[C@@H](O)[C@@H]1O [Sucrose, sucrose]
[2]
  Sweetness intensity (mean) When drinking water after 30 seconds: 0.1
  Sweetness intensity (mean) When drinking sample: 7.1

## COC(=O)[C@H](Cc1ccccc1)NC(=O)[C@@H](N)CC(=O)O [Aspartame, aspartame] (H-Asp-Phe-OMe)
[2]
  Sweetness intensity (mean) When drinking water after 30 seconds: 1.0
  Sweetness intensity (mean) When drinking sample: 7.1

— patent publication US10364216B2, “Alkenyl sulfate ester or salt thereof” (Kao Corporation, priority 2013, dated 2019)
